Measurements published in US12371454B2, “Cyclic peptide compound having Kras inhibitory action” (priority 2019, dated 2025).
pIC50: −log10 of the molar value. Starred links: 1 amine or outer side, 2 acyl side, 3 side chain; linkers in the order of their positions; H or OH if unused. Positions of bridges follow the written chain, without caps; N, C: chain ends. Non-standard residues stand in square brackets, D forms with d. Residues, ends and D or L forms follow the SMILES beside them. *: point of attachment. hPhe(3-Cl-4-CF3) = N[C@@H](CCc1ccc(C(F)(F)F)c(Cl)c1)C(=O)O; NMePhe(3-CF3) = CN[C@@H](Cc1cccc(C(F)(F)F)c1)C(=O)O; NMePhe(2-CF3) = CN[C@@H](Cc1ccccc1C(F)(F)F)C(=O)O; NMePhe(4-Br) = CN[C@@H](Cc1ccc(Br)cc1)C(=O)O; NMePhe(3-Me) = CN[C@@H](Cc1cccc(C)c1)C(=O)O; NMePhe(3-F) = CN[C@@H](Cc1cccc(F)c1)C(=O)O; NMePhe(4-F) = CN[C@@H](Cc1ccc(F)cc1)C(=O)O; NMedβ3hAla = C[C@H](CC(=O)[*:2])N(C)[*:1]; NMeY = CN[C@@H](Cc1ccc(O)cc1)C(=O)O; NMeD = CN[C@@H](CC(=O)O)C(=O)O; NMeL = CN[C@@H](CC(C)C)C(=O)O; NMeV = CN[C@H](C(=O)O)C(C)C; d(β3hA) = C[C@@H](N)CC(=O)O; Piperidide = C1CCN(*)CC1; Ac5c = NC1(C(=O)O)CCCC1; CF3 = FC(F)(F)*; Sar = CNCC(=O)O

Key:
[1] = molecular target: T1, Kras and SOS1 (biotin-tagged human Kras loaded with GDP, His-tagged human SOS1) (Homo sapiens, UniProt P01116, G12D); assay: Protein-protein interaction inhibition between Kras and SOS1 (KrasGl2D-SOS PPI) using AlphaScreen; type: binding; details: AlphaScreen; biotin-tagged human Kras loaded with GDP, His-tagged human SOS1; read-out: KRAS G12D-SOS PPI IC50
T1 construct: made in house; host or cells: E. coli (stated for Kras only)
In short: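 Read-out is acceptor-bead light at 520-620 nm, arising when 680 nm-irradiated nickel donor beads pass singlet oxygen to streptavidin acceptors. The bead pair links His-tagged SOS1 with biotin-tagged, GDP-bound Kras from E. coli.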

[2] = tested on: Human pancreatic cancer cell line AsPC-1; assay: Measurement of AsPC-1 cell growth inhibition (AsPC-1 CGI); type: cell-based; details: 96 h
In short: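 AsPC-1 cells in 15% FBS RPMI-1640 were exposed to test compound for 96 hours at 37° C, with CellTiter-Glo as endpoint.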

T1 sequence (P01116 1-188 isoform P01116-2 G12D): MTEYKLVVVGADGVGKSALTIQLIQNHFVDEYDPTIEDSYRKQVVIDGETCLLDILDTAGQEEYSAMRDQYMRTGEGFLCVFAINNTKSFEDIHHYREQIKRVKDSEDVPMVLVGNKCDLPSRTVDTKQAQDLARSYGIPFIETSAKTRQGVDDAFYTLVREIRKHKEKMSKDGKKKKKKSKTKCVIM

Compound | pIC50 [1] | pIC50 [2]
CC[C@H](C)[C@@H]1NC(=O)[C@H](CC(C)C)N(C)C(=O)C[C@@H](C(=O)N2CCCCC2)N(C)C(=O)[C@H](C(C)C)N(C)C(=O)C2(CCCC2)NC(=O)[C@@H]2CCCN2C(=O)[C@H](CCc2ccc(C(F)(F)F)c(Cl)c2)NC(=O)CN(C)C(=O)[C@H](Cc2cccc(F)c2)N(C)C(=O)CN(C)C(=O)CN(C)C1=O [Compound 1557] ([NMeL]I[Sar][Sar][NMePhe(3-F)][Sar][hPhe(3-Cl-4-CF3)]P[Ac5c][NMeV][NMeD]-Piperidide; lactam N-11) | 8.24 | 6.30 to 7.00
CC[C@H](C)[C@@H]1NC(=O)[C@H](CC(C)C)N(C)C(=O)C[C@@H](C)N(C)C(=O)[C@H](C(C)C)N(C)C(=O)C2(CCCC2)NC(=O)[C@@H]2CCCN2C(=O)[C@H](CCc2ccc(C(F)(F)F)c(Cl)c2)NC(=O)CN(C)C(=O)[C@H](Cc2ccc(OC(F)(F)F)cc2)N(C)C(=O)CN(C)C(=O)CN(C)C1=O [Compound 1563] (cyclo([Ac5c][NMeV][NMedβ3hAla][NMeL]I[Sar][Sar][NMeY](CF3)[Sar][hPhe(3-Cl-4-CF3)]P)) | 8.21 | 7.00 to 7.30
CC[C@H](C)[C@@H]1NC(=O)[C@H](CC(C)C)N(C)C(=O)C[C@@H](C)NC(=O)[C@H](C(C)C)N(C)C(=O)C2(CCCC2)NC(=O)[C@@H]2CCCN2C(=O)[C@H](CCc2ccc(C(F)(F)F)c(Cl)c2)NC(=O)CN(C)C(=O)[C@H](Cc2ccc(OC(F)(F)F)cc2)N(C)C(=O)CN(C)C(=O)CN(C)C1=O [Compound 1565] (cyclo([Ac5c][NMeV][d(β3hA)][NMeL]I[Sar][Sar][NMeY](CF3)[Sar][hPhe(3-Cl-4-CF3)]P)) | 7.85 | 6.30 to 7.00
CC[C@H](C)[C@@H]1NC(=O)[C@H](CC(C)C)N(C)C(=O)C[C@@H](C)N(C)C(=O)[C@H](C(C)C)N(C)C(=O)C2(CCCC2)NC(=O)[C@@H]2CCCN2C(=O)[C@H](CCc2ccc(C(F)(F)F)c(Cl)c2)NC(=O)CN(C)C(=O)[C@H](Cc2ccccc2C(F)(F)F)N(C)C(=O)CN(C)C(=O)CN(C)C1=O [Compound 1567] (cyclo([Ac5c][NMeV][NMedβ3hAla][NMeL]I[Sar][Sar][NMePhe(2-CF3)][Sar][hPhe(3-Cl-4-CF3)]P)) | 7.48 | 6.30 to 7.00
CC[C@H](C)[C@@H]1NC(=O)[C@H](CC(C)C)N(C)C(=O)C[C@@H](C)N(C)C(=O)[C@H](C(C)C)N(C)C(=O)C2(CCCC2)NC(=O)[C@@H]2CCCN2C(=O)[C@H](CCc2ccc(C(F)(F)F)c(Cl)c2)NC(=O)CN(C)C(=O)[C@H](Cc2cccc(C)c2)N(C)C(=O)CN(C)C(=O)CN(C)C1=O [Compound 1570] (cyclo([Ac5c][NMeV][NMedβ3hAla][NMeL]I[Sar][Sar][NMePhe(3-Me)][Sar][hPhe(3-Cl-4-CF3)]P)) | 8.37 | 7.00 to 7.30
CC[C@H](C)[C@@H]1NC(=O)[C@H](CC(C)C)N(C)C(=O)C[C@@H](C)N(C)C(=O)[C@H](C(C)C)N(C)C(=O)C2(CCCC2)NC(=O)[C@@H]2CCCN2C(=O)[C@H](CCc2ccc(C(F)(F)F)c(Cl)c2)NC(=O)CN(C)C(=O)[C@H](Cc2ccc(F)cc2)N(C)C(=O)CN(C)C(=O)CN(C)C1=O [Compound 1571] (cyclo([Ac5c][NMeV][NMedβ3hAla][NMeL]I[Sar][Sar][NMePhe(4-F)][Sar][hPhe(3-Cl-4-CF3)]P)) | 8.32 | 7.00 to 7.30
CC[C@H](C)[C@@H]1NC(=O)[C@H](CC(C)C)N(C)C(=O)C[C@@H](C)N(C)C(=O)[C@H](C(C)C)N(C)C(=O)C2(CCCC2)NC(=O)[C@@H]2CCCN2C(=O)[C@H](CCc2ccc(C(F)(F)F)c(Cl)c2)NC(=O)CN(C)C(=O)[C@H](Cc2cccc(C(F)(F)F)c2)N(C)C(=O)CN(C)C(=O)CN(C)C1=O [Compound 1572] (cyclo([Ac5c][NMeV][NMedβ3hAla][NMeL]I[Sar][Sar][NMePhe(3-CF3)][Sar][hPhe(3-Cl-4-CF3)]P)) | 8.01 | 7.00 to 7.30
CC[C@H](C)[C@@H]1NC(=O)[C@H](CC(C)C)N(C)C(=O)C[C@@H](C(=O)N2CCCCC2)N(C)C(=O)[C@H](C(C)C)N(C)C(=O)C2(CCCC2)NC(=O)[C@@H]2CCCN2C(=O)[C@H](CCc2ccc(C(F)(F)F)c(Cl)c2)NC(=O)CN(C)C(=O)[C@H](Cc2ccc(Br)cc2)N(C)C(=O)CN(C)C(=O)CN(C)C1=O [Compound 1576] ([NMeL]I[Sar][Sar][NMePhe(4-Br)][Sar][hPhe(3-Cl-4-CF3)]P[Ac5c][NMeV][NMeD]-Piperidide; lactam N-11) | 8.29 | 6.30 to 7.00
CC[C@H](C)[C@@H]1NC(=O)[C@H](CC(C)C)N(C)C(=O)C[C@@H](C(=O)N2CCCCC2)N(C)C(=O)[C@H](C(C)C)N(C)C(=O)C2(CCCC2)NC(=O)[C@@H]2CCCN2C(=O)[C@H](CCc2ccc(C(F)(F)F)c(Cl)c2)NC(=O)CN(C)C(=O)[C@H](Cc2ccccc2C(F)(F)F)N(C)C(=O)CN(C)C(=O)CN(C)C1=O [Compound 1579] ([NMeL]I[Sar][Sar][NMePhe(2-CF3)][Sar][hPhe(3-Cl-4-CF3)]P[Ac5c][NMeV][NMeD]-Piperidide; lactam N-11) | 8.09 | 6.30 to 7.00
